Source: patent US4618602A, “Amine containing pseudooligosaccharide, pharmaceutical composition and method of use” (Hoechst Aktiengesellschaft, priority 1984, dated 1986)

Key:
experimental animals = assay: Oral administration of high doses to experimental animals (tolerability); format: in vivo
blood sugar = assay: Blood sugar after oral starch load in fasting male Wistar rats; format: in vivo; conditions: simultaneously with 2 g of starch per kg, fasting male Wistar rats 200-250 g
Text: The α-glucosidase inhibitor according to the invention is particularly suitable for ora administration. It can be administered as the pure substance, as a physiologically acceptable salt with acids or in the form of a pharmaceutical formulation, using the customary auxiliaries and excipients. Combined use with other medicaments, such as hypoglycemic or lipid-lowering substances, may also be advantageous. Since high molecular weight saccharides are not, or not noticeably, absorbed as such from the digestive tract, no toxicologically unacceptable side effects are to be expected of the substance according to the invention. […] To test the pharmacological action of the AI-5662, fasting male Wistar rats weighing between 200 and 250 g were given an oral administration of the inhbitor AI-5662 according to the invention simultaneously with 2 g of starch per kg of body weight. […] Besides blood glucose regulation, the […] according to the invention can also be used for inhibiting salivary α-amylase. This enzyme effects digestion of starch in the mouth, and the sugar thus formed promotes caries of the teeth. The compound according to the invention can therefore be used to prevent or reduce the development of caries.

Solubility in water = format: physicochemical
[1] = system: α-Amylase from the pancreas of pigs; assay: Amylase test (inhibition of α-amylase, amylase inhibitor units); format: biochemical; conditions: 1 AIU inhibits two amylase units by 50%, pH 6.9, 37° C.
Description: One amylase inhibitor unit (AIU) is defined as the amount of inhibitor which is capable of inhibiting two amylase units (AU) to the extent of 50% under the test conditions. By international agreement, one amylase unit is the amount of enzyme which cleaves 1 μEq of glucosidic bonds in starch in one minute. The μ equivalents of glucosidic bonds cleaved are determined photometrically, with dinitrosalicylic acid, as μEq of reducing sugars. The data are calculated as μmol of maltose, determined with the aid of a maltose calibration line.
α-Amylase from the pancreas of pigs and the solutions to be tested are preincubated together in 1.0 ml of 20 mM phosphate buffer, pH 6.9, +10 mM NaCl at 37° C. for 10-20 minutes. The enzymatic reaction is started by addition of 1.0 ml of soluble starch (0.25% strength in the buffer described) according to Zulkowski. After exactly 10 minutes, the reaction istopped with 2.0 ml of dinitrosalicylic acid color reagent (from Boehringer Mannheim: Biochemica-Information II), and the mixture is heated in a boiling waterbath for 5 minutes for color development. After cooling, the extinction is measured against the reagent blank at 546 nm. The 50% inhibition is determined graphically by means of a probability plot in comparison with the non-inhibited enzyme reaction using various amounts of inhibitor.

With `C[C@H]1O[C@H](O[C@H]2[C@H](O)[C@@H](O)[C@@H](O[C@H]3[C@H](O)[C@@H](O)C(O)O[C@@H]3CO)O[C@@H]2CO)[C@H](O)[C@@H](O)[C@@H]1N[C@H]1C=C(CO)[C@@H](O[C@H]2O[C@H](CO)[C@@H](O[C@H]3O[C@H](C)[C@@H](N[C@H]4C=C(CO)[C@@H](O)[C@H](O)[C@H]4O)[C@H](O)[C@H]3O)[C@H](O)[C@H]2O)[C@H](O)[C@H]1O` (some centres unmarked) [AI-5662] the “signs following oral administration even of high doses” value (experimental animals) was “no notworthy signs were detected”, the “efficacy on blood sugar concentrations” value (blood sugar) was “The efficacy of the product was demonstrated” and the solubility in water (Solubility in water) was “readily soluble in water”. For the same compound, the α-amylase-inhibiting action ([1]; freeze-dried white amorphous powder of Example 2) was 4×10^4 AIU per mg and the specific activity ([1]; purified product after silica gel chromatography) was 4×10^4 α-amylase inhibitor units per mg.
